Test results published in US10435447B2, “Bacteriocidal peptides and uses thereof” (priority 2015, dated 2019).
Values after ≈ are worked out from the molar mass of the structure shown. Like-named read-outs stand apart in the source and are kept apart here. Residues, ends and D or L forms follow the SMILES beside them.

Columns and labels:
E. cloacae [1] = system: E. cloacae
S. marcescens [2] = system: S. marcescens
E. coli [3] = conditions: for LVX MIC fold change (↓ decrease) / MEM MIC fold change (↓ decrease): with SMAP-29C* vs alone
P. aeruginosa [4] = system: P. aeruginosa
K. pneumoniae [5] = system: K. pneumoniae
S. marcescens [6] = assay: microbe, parasite or virus in culture; conditions: Serratia marcescens
P. aeruginosa [7] = assay: microbe, parasite or virus in culture; conditions: Pseudomonas aeruginosa
E. coli [8] = assay: microbe, parasite or virus in culture; conditions: Escherichia coli
E. cloacae [9] = assay: microbe, parasite or virus in culture; conditions: Enterobacter cloacae
K. pneumoniae [10] = assay: microbe, parasite or virus in culture; conditions: Klebsiella pneumoniae
[11] = system: Toll-like receptor 3 (TLR3); conditions: mouse cells and human cells; earlier finding; cited from earlier work
TLR4 = conditions: earlier finding; cited from earlier work
[12] = system: Toll-like receptor 3 (TLR3); assay: IL-6 ELISA, TLR3 signaling with poly(I:C) in BEAS-2B cells; format: cell-based, human
Description: Innate immune signaling by endogenous Toll-like receptor 3 (TLR3) in BEAS-2B cells in response to double-stranded RNA and various bacteriocidal peptides. IL-6 cytokine produced in response to signal transduction by TLR3 and the double-stranded RNA mimic, poly(I:C), was quantified using ELISA. Where present, the peptides were added to the media of BEAS-2B cells to a final concentration of 2 μM. […] All assays were performed in three independent samples and the mean and one standard error is shown above the bars.

[13] = E. cloacae OC 4080, with SMAP-29C* vs alone
[14] = S. marcescens 4104, with SMAP-29C* vs alone
[15] = P. aeruginosa PA01 oprD, with SMAP-29C* vs alone
[16] = K. pneumoniae OC 4110, with SMAP-29C* vs alone
[17] = read-out: Kan + SMAP-29C* (Kan MIC)
[18] = read-out: MEM + SMAP-29C* (MEM MIC)

**Q.** With `CC[C@H](C)[C@H](NC(=O)[C@H](CCCCN)NC(=O)[C@H](CCCNC(=N)N)NC(=O)CNC(=O)[C@H](CC(C)C)NC(=O)[C@H](CCCNC(=N)N)NC(=O)[C@H](CCCNC(=N)N)NC(=O)[C@H](CC(C)C)NC(=O)CNC(=O)[C@@H](N)CCCNC(=N)N)C(=O)N[C@@H](C)C(=O)N[C@@H](Cc1c[nH]cn1)C(=O)NCC(=O)N[C@H](C(=O)N[C@@H](CCCCN)C(=O)N[C@@H](CCCCN)C(=O)N[C@@H](CS)C(=O)NCC(=O)N1CCC[C@H]1C(=O)N[C@H](C(=O)N[C@H](C(=O)N[C@@H](CC(C)C)C(=O)N[C@@H](CCCNC(=N)N)C(=O)N[C@H](C(=O)N[C@H](C(=O)N[C@@H](CCCNC(=N)N)C(=O)N[C@H](C(=O)N[C@@H](C)C(=O)NCC(=O)N[C@@H](CS)C(=O)O)[C@@H](C)CC)[C@@H](C)CC)[C@@H](C)CC)C(C)C)[C@@H](C)O)C(C)C` [SMAP-29C] (H-RGLRRLGRKIAHGVKKCGPTVLRIIRIAGC-OH; N-terminus and C-terminus assumed) as the compound, how does the “MIC for ShpC + Kan*” value (E. cloacae [1]; E. cloacae OC 4080, with Kan* 1 μg/ml (½ MIC)) read?
**A.** 2 µg/mL

**Q.** And the “MIC for ShpC + Kan*” value (S. marcescens [2]; S. marcescens 4104, with Kan* 2 μg/ml (½ MIC))?
**A.** 2 µg/mL

**Q.** What about the “SMAP-29C MIC fold change (↓ decrease)” value (S. marcescens [2]; S. marcescens 4104, with Kan* vs alone) of the same compound?
**A.** ↓>8x fold

**Q.** What about the “SMAP-29C MIC fold change (↓ decrease)” value (S. marcescens [2]; S. marcescens 4104, with LVX* vs alone) of the same compound?
**A.** ↓>4x fold

**Q.** What about the “SMAP-29C MIC fold change (↓ decrease)” value (S. marcescens [2]; S. marcescens 4104, with MEM* vs alone) of the same compound?
**A.** No change

**Q.** And the “MIC for ShpC + Kan*” value (E. coli [3]; E. coli ATCC25922, with Kan* 1 μg/ml (½ MIC))?
**A.** <0.25 µg/mL

**Q.** And the “MIC for ShpC + Kan*” value (E. coli [3]; E. coli IU-342, with Kan* 8 μg/ml (½ MIC))?
**A.** 2 µg/mL

**Q.** What about the “MIC for ShpC + Kan*” value (P. aeruginosa [4]) of the same compound?
**A.** 2 µg/mL

**Q.** What about the MIC (E. faecalis) of the same compound?
**A.** 32 µg/mL (≈ 9.7 µM)

**Q.** And the “MIC for ShpC + Kan*” value (K. pneumoniae [5]; K. pneumoniae OC 4110, with Kan* 2 μg/ml (½ MIC))?
**A.** 2 µg/mL

**Q.** What about the “SMAP-29C MIC fold change (↓ decrease)” value (K. pneumoniae [5]; K. pneumoniae OC 4110, with Kan* vs alone) of the same compound?
**A.** ↓4x fold

**Q.** What about the “SMAP-29C MIC fold change (↓ decrease)” value (K. pneumoniae [5]; K. pneumoniae OC 4110, with LVX* vs alone) of the same compound?
**A.** 1x fold

**Q.** What about the “SMAP-29C MIC fold change (↓ decrease)” value (K. pneumoniae [5]; K. pneumoniae OC 4110, with MEM* vs alone) of the same compound?
**A.** ↓2x fold

**Q.** What does the source list for `C[C@H]1COc2c(N3CCN(C)CC3)c(F)cc3c(=O)c(C(=O)O)cn1c23` [LVX, Levofloxacin]?
**A.** LVX + SMAP-29C* (LVX MIC) (E. cloacae [1]): <0.004 µg/mL; LVX MIC fold change (↓ decrease) (E. cloacae [1]; [13]): ↓>8x fold; LVX + SMAP-29C* (LVX MIC) (S. marcescens [2]): <0.125 µg/mL; LVX MIC fold change (↓ decrease) (S. marcescens [2]; [14]): ↓>32x fold; MIC (S. marcescens [6]; read-out: LVX (MIC alone)): 4 µg/mL (≈ 11.1 µM); LVX MIC fold change (↓ decrease) (E. coli [3]; E. coli ATCC 25922): 1 fold; LVX MIC fold change (↓ decrease) (E. coli [3]; E. coli IU-342): ↓4x fold; MIC (P. aeruginosa [7]; read-out: LVX (MIC alone)): 4 µg/mL (≈ 11.1 µM); MIC (E. coli [8]; ATCC25922, read-out: LVX (MIC alone)): 0.016 µg/mL (≈ 0.0443 µM); MIC (E. coli [8]; read-out: LVX (MIC alone)): 8 µg/mL (≈ 22.1 µM); LVX + SMAP-29C* (LVX MIC) (P. aeruginosa [4]): <0.125 µg/mL; LVX MIC fold change (↓ decrease) (P. aeruginosa [4]; [15]): ↓>32x fold; MIC (E. cloacae [9]; read-out: LVX (MIC alone)): 0.032 µg/mL (≈ 0.0886 µM); MIC (K. pneumoniae [10]; read-out: LVX (MIC alone)): 0.5 µg/mL (≈ 1.38 µM); LVX + SMAP-29C* (LVX MIC) (K. pneumoniae [5]): 0.5 µg/mL; LVX MIC fold change (↓ decrease) (K. pneumoniae [5]; [16]): 1 fold

**Q.** Which “activation of signaling by TLR3” value [11] does the source give for “CRAMP: SEQ ID NO: 4, mouse ortholog of LL-37, GLLRKGGEKIGEKLKKIGQKIKNFFQKLVPQPEQ (listed as Mus musculus)” here?
**A.** unable to activate signaling by TLR3

**Q.** And the “suppression of inflammatory response induced by lipopolysaccharide” value (TLR4)?
**A.** retained the ability to suppress inflammatory response

**Q.** And the “enhancement of TLR3 signaling / IL-6 production (in words)” value [12]?
**A.** unable to enhance IL-6 production

**Q.** Which “Kan MIC Fold change (↓ decrease)” value (S. marcescens [2]; [14]) does the source give for `NC[C@H]1O[C@H](O[C@H]2[C@H](O)[C@@H](O[C@H]3O[C@H](CO)[C@@H](O)[C@H](N)[C@H]3O)[C@H](N)C[C@@H]2N)[C@H](O)[C@@H](O)[C@@H]1O` [Kan, kanamycin] here?
**A.** ↓2x fold

**Q.** And the MIC (S. marcescens [6]; read-out: Kan (MIC alone))?
**A.** 4 µg/mL (≈ 8.26 µM)

**Q.** What about the MIC (P. aeruginosa [7]; read-out: Kan (MIC alone)) of the same compound?
**A.** 64 µg/mL (≈ 132 µM)

**Q.** And the MIC (P. aeruginosa [7]; [17])?
**A.** 32 µg/mL

**Q.** What about the MIC (E. coli [8]; ATCC25922, read-out: Kan (MIC alone)) of the same compound?
**A.** 2 µg/mL (≈ 4.13 µM)

**Q.** And the MIC (E. coli [8]; read-out: Kan (MIC alone))?
**A.** 16 µg/mL (≈ 33 µM)

**Q.** What about the MIC (E. coli [8]; [17]) of the same compound?
**A.** 8 µg/mL

**Q.** What about the MIC (E. cloacae [9]; read-out: Kan (MIC alone)) of the same compound?
**A.** 2 µg/mL (≈ 4.13 µM)

**Q.** And the MIC (K. pneumoniae [10]; read-out: Kan (MIC alone))?
**A.** 4 µg/mL (≈ 8.26 µM)

**Q.** And the “Kan MIC Fold change (↓ decrease)” value (K. pneumoniae [5]; [16])?
**A.** ↓2x fold

**Q.** With `C[C@@H](O)[C@H]1C(=O)N2C(C(=O)O)=C(S[C@@H]3CN[C@H](C(=O)N(C)C)C3)[C@H](C)[C@H]12` [MEM, Meropenem] as the compound, how does the “MEM MIC fold change (↓ decrease)” value (E. cloacae [1]; [13]) read?
**A.** ↓4x fold

**Q.** What about the “MEM MIC fold change (↓ decrease)” value (S. marcescens [2]; [14]) of the same compound?
**A.** ↓4x fold

**Q.** And the MIC (S. marcescens [6]; read-out: MEM (MIC alone))?
**A.** 0.032 µg/mL (≈ 0.0834 µM)

**Q.** What about the MIC (S. marcescens [6]; [18]) of the same compound?
**A.** 0.008 µg/mL

**Q.** What about the “MEM MIC fold change (↓ decrease)” value (E. coli [3]; E. coli ATCC 25922) of the same compound?
**A.** ↓2x fold

**Q.** What about the “MEM MIC fold change (↓ decrease)” value (E. coli [3]; E. coli IU-342) of the same compound?
**A.** ↓>4x fold

**Q.** What about the MIC (P. aeruginosa [7]; read-out: MEM (MIC alone)) of the same compound?
**A.** 1 µg/mL (≈ 2.61 µM)

**Q.** What about the MIC (P. aeruginosa [7]; [18]) of the same compound?
**A.** 0.5 µg/mL

**Q.** What about the MIC (E. coli [8]; ATCC25922, read-out: MEM (MIC alone)) of the same compound?
**A.** 0.016 µg/mL (≈ 0.0417 µM)

**Q.** What about the MIC (E. coli [8]; ATCC25922, read-out: MEM + SMAP-29C* (MEM MIC)) of the same compound?
**A.** 0.008 µg/mL

**Q.** And the MIC (E. coli [8]; read-out: MEM (MIC alone))?
**A.** 0.016 µg/mL (≈ 0.0417 µM)

**Q.** And the MIC (E. coli [8]; [18])?
**A.** < 0.004 µg/mL

**Q.** What about the “MEM MIC fold change (↓ decrease)” value (P. aeruginosa [4]; [15]) of the same compound?
**A.** ↓2x fold

**Q.** What about the MIC (E. cloacae [9]; read-out: MEM (MIC alone)) of the same compound?
**A.** 0.032 µg/mL (≈ 0.0834 µM)

**Q.** And the MIC (E. cloacae [9]; [18])?
**A.** 0.008 µg/mL

**Q.** What about the MIC (K. pneumoniae [10]; read-out: MEM (MIC alone)) of the same compound?
**A.** 0.052 µg/mL (≈ 0.136 µM)

**Q.** What about the MIC (K. pneumoniae [10]; [18]) of the same compound?
**A.** 0.032 µg/mL

**Q.** And the “MEM MIC fold change (↓ decrease)” value (K. pneumoniae [5]; [16])?
**A.** 1x fold
